In patent publication US3966728A, “Benzoguanamine derivatives” (Nippon Shinyaku Co., Ltd., priority 1974, dated 1976):

How the values were obtained:
Ulcer (Shay rat) = experiment: Anti-ulcerative activity (Shay rat); type: in vivo; settings: ip, read-out: % Inhibition of Ulcer Index; for inhibition in vivo at 20 mg/kg: 20 mg/Kg i.p.; for inhibition in vivo at 10 mg/kg: 10 mg/Kg i.p.
From the text: (§1) Data of the anti-ulcerative activity (Shay rat) and the acute toxicity (mouse) obtained with respect to several typical instances of compounds included in the scope of this invention are shown in Table 1.

Acute toxicity (mouse) = settings: in vivo, ip
From the text: as §1

For Nc1nc(N)nc(-c2c(Cl)cccc2Cl)n1 [Example 11], which inhibition in vivo at 20 mg/kg (Ulcer (Shay rat)) is on record?
The inhibition in vivo at 20 mg/kg was 54%.

For Nc1nc(N)nc(-c2ccc(Cl)cc2Cl)n1 [Example 7], which inhibition in vivo at 10 mg/kg (Ulcer (Shay rat)) is on record?
Its inhibition in vivo at 10 mg/kg is 77%.

What about the inhibition in vivo at 20 mg/kg (Ulcer (Shay rat)) of the same compound?
Its inhibition in vivo at 20 mg/kg is 100%.

And the LD50 (Acute toxicity (mouse))?
The LD50 was about 300 mg/kg.

For Nc1nc(N)nc(-c2cc(Cl)ccc2Br)n1 [Example 3], which inhibition in vivo at 10 mg/kg (Ulcer (Shay rat)) is on record?
Its inhibition in vivo at 10 mg/kg is 33%.

What about the inhibition in vivo at 20 mg/kg (Ulcer (Shay rat)) of the same compound?
The inhibition in vivo at 20 mg/kg was 80%.

And the LD50 (Acute toxicity (mouse))?
The LD50 was about 1000 mg/kg.

With Nc1nc(N)nc(-c2ccc(Cl)cc2Br)n1 [Example 8] as the compound, how does the inhibition in vivo at 10 mg/kg (Ulcer (Shay rat)) read?
Its inhibition in vivo at 10 mg/kg is 76%.

And the inhibition in vivo at 20 mg/kg (Ulcer (Shay rat))?
The inhibition in vivo at 20 mg/kg was 96%.

For Nc1nc(N)nc(-c2cc(Cl)ccc2F)n1 [Example 2], which inhibition in vivo at 20 mg/kg (Ulcer (Shay rat)) is on record?
The inhibition in vivo at 20 mg/kg was 89%.

For Nc1nc(N)nc(-c2cc(Cl)cc(Cl)c2)n1 [Example 12], which inhibition in vivo at 20 mg/kg (Ulcer (Shay rat)) is on record?
The inhibition in vivo at 20 mg/kg was 80%.

Which inhibition in vivo at 20 mg/kg (Ulcer (Shay rat)) does the source give for Nc1nc(N)nc(-c2cccc(Cl)c2Cl)n1 [Example 10] here?
The inhibition in vivo at 20 mg/kg was 76%.

Which results are given for Nc1nc(N)nc(-c2cc(Cl)ccc2Cl)n1 [Example 1]?
inhibition in vivo at 10 mg/kg (Ulcer (Shay rat)): 49%; inhibition in vivo at 20 mg/kg (Ulcer (Shay rat)): 100%; LD50 (Acute toxicity (mouse)): ~1600 mg/kg

For Nc1nc(N)nc(-c2cc(Br)ccc2Br)n1 [Example 5], which inhibition in vivo at 20 mg/kg (Ulcer (Shay rat)) is on record?
Its inhibition in vivo at 20 mg/kg is 100%.

What about the LD50 (Acute toxicity (mouse)) of the same compound?
Its LD50 is about 850 mg/kg.

Which inhibition in vivo at 20 mg/kg (Ulcer (Shay rat)) does the source give for Nc1nc(N)nc(-c2cc(F)ccc2Br)n1 [Example 4] here?
Its inhibition in vivo at 20 mg/kg is 78%.

And the LD50 (Acute toxicity (mouse))?
Its LD50 is about 500 mg/kg.

Which inhibition in vivo at 10 mg/kg (Ulcer (Shay rat)) does the source give for Nc1nc(N)nc(-c2cc(Br)ccc2Cl)n1 [Example 6] here?
The inhibition in vivo at 10 mg/kg was 35%.

What about the inhibition in vivo at 20 mg/kg (Ulcer (Shay rat)) of the same compound?
Its inhibition in vivo at 20 mg/kg is 86%.

And the LD50 (Acute toxicity (mouse))?
Its LD50 is over 1000 mg/kg.
